Assay results: patent publication US20230392180A1, “MICROSCOPIC IMAGING AND ANALYSES OF EPIGENETIC LANDSCAPE” (Sanford Burnham Prebys Medical Discovery Institute, priority 2020, published 2023)
Where a name gives a salt, the structure may show the parent alone.

Experiments:
[1] = Exposure estimated from publicly available information; details: women, estimating 50-75 kg body weight
[2] = tested on: GBM2 cells; assay: Sensitization to radiation or TMZ; type: cell-based, human; details: 200 uM, 4 days
Protocol: Sensitization to radiation or TMZ: Cells were plated at 1500 cells/well in 384-well optical bottom assay plates (PerkinElmer). Two sets of the experiment were prepared; DMSO (0.1%) was used for negative controls at 48 DMSO replicates per plate; 3 replicates (wells) were treated per compound. Cells in both sets were pre-treated with epigenetic compounds for 2 days prior to cytotoxic treatment. Cytotoxic treatment, either 200 uM temozolomide (TMZ, Sigma) or 1 Gy x-ray radiation (RS2000; RAD Source) was carried out for 4 days on single set (‘treatment set’); for TMZ treatment, DMSO control was given to the second set. A single radiation dose was given at day 3; TMZ was given twice at days 3 and 5 of the experiment. Cells were fixed, stained with DAPI, and scored using an automated microscope (Celigo; Nexcelom Bioscience). For each compound, fold change in cell number was calculated for both the “treatment set” (Drug+Cytotox) and the “control set” (Drug), compared to DMSO-treated wells in the control set. The effect of radiation or TMZ alone was calculated as fold reduction of DMSO-treated wells in the treatment set compared to DMSO-treated wells in the control set (Cytotox). The coefficient of drug interaction (CDI) was calculated as […]. […]

[3] = single report; cited from earlier work
[4] = cited from earlier work
[5] = tested on: primary human fNPCs; assay: MIEL-EpiTox of ToxCast Phase I/II+elk library compounds; details: 10 μM, 72 h, H3K27ac and H3K27me3
Protocol: Cells were treated with test compounds, then fixed and immunolabeled for epigenetic marks. The pattern of marks within each nucleus was analyzed to create multivariate signatures or “fingerprints” of each perturbation. Since the technique analyzes texture features rather than intensities and morphologies, culturing and immunostaining artifacts are reduced. MIEL is related to “cell painting”, in which multivariate analysis of multiplexed biomarkers was used to classify protein localization, cell subpopulations, and drug mechanisms of action. The multiparametric signatures of the cells (centroids) were plotted in 2D via multidimensional scaling (MDS), and support vector machine (SVM) classification was used to establish borders to divide the epigenetic signatures into distinct classes. MIEL was employed to probe the presence of epitoxic compounds in the EPA ToxCast Phase I/II+elk library and examined the effects of 352 compounds on primary human fNPCs (Thermo-Fisher, #A15654). Cells were incubated with 10 μM compound for 72 h, labeled with fluorescence-tagged antibodies to H3K27ac and H3K27me3, and imaged on a Vala Sciences IC200 cytometer. Features were derived using Acapella (Perkin Elmer) high-content imaging and analysis software. SVM classification was conducted as previously described. […] The same criteria were applied to determine toxicity.

## C[C@@H]1C[C@H]2[C@@H]3CCC4=CC(=O)C=C[C@]4(C)[C@@]3(F)[C@@H](O)C[C@]2(C)[C@@]1(O)C(=O)COS(=O)(=O)O [dexamethasone sulfate]
[1]
  estimated concentrations reached following repeated administration: ~10 µM

## Cn1nnc2c(C(N)=O)ncn2c1=O [TMZ, temozolomide]
[2]
  reduction in cell numbers: 50%

## Cc1sc2c(c1C)C(c1ccc(Cl)cc1)=N[C@@H](CC(=O)Nc1ccc(O)cc1)c1nnc(C)n1-2 [OTX015]
[3]
  interaction with TMZ: synergy
[4]; doses achieving biologically active levels
  toxicity in clinical trials: low toxicity
[4]; in vivo
  clinical benefits: no detectable clinical benefits

## CCCCOC(=O)COc1ccc(Cl)cc1Cl [2,4-D 1-butyl ester]
[5]
  MIEL-EpiTox class (epitoxic, cytotoxic, inert): epitoxic hits producing the largest epigenetic perturbations
